In PubChem BioAssay AID248 (DTP/NCI, 2004):
Values joined by “and” are separate entries in the source; they are usually repeats but may differ in a detail not shown here. Equal values may be shown once. Toxic doses and inconclusive results are not listed. No stated cut-off is given here; in the data, active means T/C of 150% or more; inactive means T/C below 125%.

Tested on: L1210 leukemia ip in BDF1 mice, survival T/C
Experiment: NCI In Vivo Anticancer Drug Screen. Data for tumor model L1210 Leukemia (intraperitoneal) in B6D2F1 (BDF1) mice
Conditions: endpoint: mean survival time, higher = longer survival
How it was run: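 In this screen, tumor-bearing mice given compound are compared to those given vehicle, and their survival values are reported as a treated-to-control quotient.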

[1] = dose: 50.0 mg/kg/injection, schedule: Q01DX009 (ip), vehicle: Klucel (hydroxypropylcellulose) (HPC)
[2] = dose: 100.0 mg/kg/injection, schedule: Q01DX009 (ip), vehicle: Klucel (hydroxypropylcellulose) (HPC)
[3] = dose: 200.0 mg/kg/injection, schedule: Q01DX009 (ip), vehicle: Klucel (hydroxypropylcellulose) (HPC)
[4] = dose: 100.0 mg/kg/injection, schedule: Q04DX003 (ip), vehicle: saline with Tween-80
[5] = dose: 75.0 mg/kg/injection, schedule: Q01DX001 (ip), vehicle: other
[6] = dose: 100.0 mg/kg/injection, schedule: Q01DX001 (ip), vehicle: saline
[7] = dose: 200.0 mg/kg/injection, schedule: Q01DX001 (ip), vehicle: saline
[8] = dose: 400.0 mg/kg/injection, schedule: Q01DX001 (ip), vehicle: saline
[9] = dose: 12.5 mg/kg/injection, schedule: Q01DX009 (ip), vehicle: Klucel (hydroxypropylcellulose) (HPC)
[10] = dose: 25.0 mg/kg/injection, schedule: Q01DX009 (ip), vehicle: Klucel (hydroxypropylcellulose) (HPC)
[11] = dose: 100.0 mg/kg/injection, schedule: Q04DX003 (ip), vehicle: Klucel (hydroxypropylcellulose) (HPC)
[12] = dose: 200.0 mg/kg/injection, schedule: Q04DX003 (ip), vehicle: Klucel (hydroxypropylcellulose) (HPC)
[13] = dose: 400.0 mg/kg/injection, schedule: Q04DX003 (ip), vehicle: Klucel (hydroxypropylcellulose) (HPC)
[14] = dose: 100.0 mg/kg/injection, schedule: Q01DX009 (ip), vehicle: saline with Tween-80
[15] = dose: 200.0 mg/kg/injection, schedule: Q01DX009 (ip), vehicle: saline with Tween-80
[16] = dose: 400.0 mg/kg/injection, schedule: Q01DX009 (ip), vehicle: saline with Tween-80
[17] = dose: 25.0 mg/kg/injection, schedule: Q01DX009 (ip), vehicle: saline with Tween-80
[18] = dose: 50.0 mg/kg/injection, schedule: Q01DX009 (ip), vehicle: saline with Tween-80

Measured: T/C

CCc1ccc(NC(=O)Nc2ccc(Cl)cc2)cc1
inactive: dose: 100.0 mg/kg/injection, schedule: Q01DX009 (ip), vehicle: gum acacia 92 % of control | dose: 100.0 mg/kg/injection, schedule: Q04DX003 (ip), vehicle: gum acacia 92 % of control | dose: 200.0 mg/kg/injection, schedule: Q01DX009 (ip), vehicle: gum acacia 89 % of control | dose: 200.0 mg/kg/injection, schedule: Q04DX003 (ip), vehicle: gum acacia 92 % of control | dose: 400.0 mg/kg/injection, schedule: Q01DX009 (ip), vehicle: gum acacia 94 % of control | dose: 400.0 mg/kg/injection, schedule: Q04DX003 (ip), vehicle: gum acacia 93 % of control

[O-][n+]1ccccc1-c1ccccc1
inactive: [1] 104 % of control | [2] 101 % of control | dose: 100.0 mg/kg/injection, schedule: Q04DX002 (ip), vehicle: Klucel (hydroxypropylcellulose) (HPC) 104 % of control | [3] 118 % of control | dose: 200.0 mg/kg/injection, schedule: Q04DX002 (ip), vehicle: Klucel (hydroxypropylcellulose) (HPC) 107 % of control

C/C(=C/C(=O)O)c1ccc([N+](=O)[O-])cc1
inactive: [4] 100 % of control | dose: 200.0 mg/kg/injection, schedule: Q04DX003 (ip), vehicle: saline with Tween-80 96 % of control | dose: 400.0 mg/kg/injection, schedule: Q04DX003 (ip), vehicle: saline with Tween-80 100 % of control

O=C1C=C2CCCC2CC1 (centres undefined)
inactive: [5] 97 % of control | dose: 75.0 mg/kg/injection, schedule: Q04DX003 (ip), vehicle: other 93 % of control | dose: 150.0 mg/kg/injection, schedule: Q01DX001 (ip), vehicle: other 92 % of control | dose: 150.0 mg/kg/injection, schedule: Q04DX003 (ip), vehicle: other 98 % of control | dose: 300.0 mg/kg/injection, schedule: Q01DX001 (ip), vehicle: other 94 % of control | dose: 300.0 mg/kg/injection, schedule: Q04DX003 (ip), vehicle: other 92 % of control

[NH-]CC([NH-])=O.[NH-]CC([NH-])=O.[Ni]
inactive: dose: 3.12 mg/kg/injection, schedule: Q01DX009 (ip), vehicle: water 96 % of control | dose: 6.25 mg/kg/injection, schedule: Q01DX009 (ip), vehicle: water 100 % of control | dose: 12.5 mg/kg/injection, schedule: Q01DX009 (ip), vehicle: water 103 % of control

CN1CCN(C)P1(=O)N1CCCC1
inactive: [6] 107 % of control | [7] 94 % of control | [8] 94 % of control

O=C1C(Cl)=C(Cl)C(Cl)(Cl)C1(Cl)Cl
inactive: [9] 98 % of control | dose: 12.5 mg/kg/injection, schedule: Q04DX003 (ip), vehicle: Klucel (hydroxypropylcellulose) (HPC) 98 % of control | [10] 101 % of control | dose: 25.0 mg/kg/injection, schedule: Q04DX003 (ip), vehicle: Klucel (hydroxypropylcellulose) (HPC) 96 % of control | [1] 94 % of control | dose: 50.0 mg/kg/injection, schedule: Q04DX003 (ip), vehicle: Klucel (hydroxypropylcellulose) (HPC) 100 % of control

CC(C)COC(=O)C(C)OC(=O)OCCOCCOC(=O)OC(C)C(=O)OCC(C)C (centres undefined)
inactive: [6] 100 % of control | [7] 102 % of control | [8] 100 % of control

CCOC(=O)c1cnn(-c2ccccc2)c1N
inactive: dose: 25.0 mg/kg/injection, schedule: Q01DX009 (ip), vehicle: saline 104 % of control | dose: 50.0 mg/kg/injection, schedule: Q01DX009 (ip), vehicle: saline 108 % of control | [2] 98 % of control | dose: 100.0 mg/kg/injection, schedule: Q01DX009 (ip), vehicle: saline 105 % of control | [11] 96 % of control | [3] 100 % of control | [12] 100 % of control | dose: 400.0 mg/kg/injection, schedule: Q01DX009 (ip), vehicle: Klucel (hydroxypropylcellulose) (HPC) 102 % of control | [13] 100 % of control

OC(CNc1ccnc2cc(Cl)ccc12)CNC1CCCCC1 (centres undefined)
inactive: [5] 97 % of control

Cc1ccc(S(=O)(=O)Nc2ccccc2)c(C(O)(c2ccccc2)c2ccccc2)c1
inactive: [14] 91 % of control | [15] 96 % of control | [16] 93 % of control

CC(=O)O[C@H]1[C@H]2O[C@]23[C@@H]2CC[C@@H]4C[C@@H](O)CC[C@]4(C)[C@H]2CC[C@]3(C)[C@H]1c1ccc(=O)oc1
inactive: dose: 3.75 mg/kg/injection, schedule: Q01DX009 (ip), vehicle: Klucel (hydroxypropylcellulose) (HPC) 110 % of control | dose: 5.0 mg/kg/injection, schedule: Q01DX001 (ip), vehicle: other 103 % of control | dose: 7.5 mg/kg/injection, schedule: Q01DX009 (ip), vehicle: Klucel (hydroxypropylcellulose) (HPC) 98 % of control | dose: 10.0 mg/kg/injection, schedule: Q01DX001 (ip), vehicle: other 103 % of control | dose: 15.0 mg/kg/injection, schedule: Q04DX003 (ip), vehicle: Klucel (hydroxypropylcellulose) (HPC) 98 % of control | dose: 20.0 mg/kg/injection, schedule: Q01DX001 (ip), vehicle: other 97 % of control

Cc1ccc(C)c(NC(=O)Nc2cc(C)on2)c1
inactive: [14] 86 % of control | [15] 97 % of control | [16] 94 % of control

CCOC(=O)C(N=Nc1ccccc1)C(C)=O (centres undefined)
inactive: [9] 100 % of control | [10] 97 % of control | [1] 94 % of control | [11] 103 % of control | [12] 100 % of control | [13] 88 % of control

ClCC1CC2CC1C1OC21 (centres undefined)
inactive: [6] 106 % of control

C(#CCN1CCCC1)CCCN1CCCC1
inactive: [17] 98 % of control | dose: 25.0 mg/kg/injection, schedule: Q04DX003 (ip), vehicle: saline with Tween-80 97 % of control | [18] 102 % of control | dose: 50.0 mg/kg/injection, schedule: Q04DX003 (ip), vehicle: saline with Tween-80 97 % of control | [14] 95 % of control | [4] 93 % of control and 98 % of control

NC(=O)n1cncn1
inactive: [6] 90 % of control | dose: 100.0 mg/kg/injection, schedule: Q01DX009 (ip), vehicle: acetone 89 % of control | [7] 107 % of control | dose: 200.0 mg/kg/injection, schedule: Q01DX009 (ip), vehicle: acetone 100 % of control | [8] 100 % of control | dose: 400.0 mg/kg/injection, schedule: Q01DX009 (ip), vehicle: acetone 91 % of control

COc1ccc(/C=N/NC(=S)Nc2ccccn2)cc1OC
inactive: [17] 104 % of control | [18] 93 % of control | [14] 122 % of control

Nc1nc(CO)c(CCCCc2ccccc2)c(=O)[nH]1
inactive: dose: 50.0 mg/kg/injection, schedule: Q01DX001 (ip), vehicle: saline 101 % of control | [6] 101 % of control | [7] 98 % of control | [8] 101 % of control

CNC(=O)Nc1nc2ccc([N+](=O)[O-])cc2[nH]1
inactive: [6] 105 % of control | [7] 103 % of control | [8] 97 % of control

Cc1ccc(S(=O)(=O)N/N=C/C(O)C(O)C(O)C(O)CO)cc1 (centres undefined)
inactive: [14] 102 % of control | [15] 102 % of control | [16] 100 % of control
